Data on three molecules can be found in paper PMC10455339, “Combining the Peptide RWQWRWQWR and an Ethanolic Extract of Bidens pilosa Enhances the Activity against Sensitive and Resistant Candida albicans and C. auris Strains” (Journal of Fungi, 2023).

Data set [1] deals with C. albicans 256. The note with it: previously published, cited from earlier work. The protocol:
(§1) Table 5 Synergy test. Combination of R-1-R with FLC against C. albicans and C. auris. | column: MICR-1-R; MICFLC; R-1-R; FLC; FIC Index; MICR-1-R/R-1-R; MICFLC/FLC || Initially, the antifungal activity of mixtures of R-1-R/FLC against the C. albicans and C. auris strains was evaluated (Table 5). […] The MIC value of FLC in C. albicans SC5314 was reduced by a factor of 2, while that in C. albicans 256 was reduced by a factor of 8.

Data set [2] relates to C. auris 537. The note with it: previously published, cited from earlier work. The protocol:
as §1

For data set [3], the system named is C. auris 435. The protocol:
(§2) This was performed using the checkerboard test, with some adjustments. Briefly, peptide or extract with FLC, peptide with extract, and extract, peptide, and FLC (final concentrations: 0, 0.06, 0.12, 0.25, 0.50, 1, and 2 times the MIC) were mixed. […] The fractional inhibitory concentration index (FIC I) was calculated as follows: [A/MIC A] + [P/MIC P] = FIC I, where MIC A and MIC P are the MICs of the individual peptide, extract, and/or antifungal. A and P are the MICs of the same, but in combination.
(§3) The combinations were classified as synergistic (FIC I ≤ 0.5), additive (FIC I > 0.5–1), indifferent (FIC I > 1 < 4), or antagonistic (FIC I > 4).

The subject of data set [4] is C. albicans 256. How it is done:
as §2, §3

In data set [5] the test system is C. albicans SC5314. How it is done: as §2, §3
Data set [6] deals with C. auris 537. How it is done:
as §2, §3

Data set [7] has as its system C. albicans SC5314. Description: microbe, parasite or virus in culture. The conditions noted are these: SC5314, 48 h. It counts as cell-based, Candida albicans. How it is done:
For the determination of the MICs, the guidelines of the Clinical Laboratory Standards Institute (CLSI BMD-M27-A4) were used with some modifications. Serial dilutions were made, for peptides from 6.25 to 200 µg/mL and for extracts from 31.2 to 2000 µg/mL, with RPMI 1640 medium in a 96-well microdilution plate (100 µL), and then 100 µL of the adjusted inoculum (0.5–2.5 × 10^3 cells/mL) was added and incubated at 37 °C, and visual and spectrophotometric reading (595 nm) was performed at 48 h. Controls: growth control in RPMI or DMSO, control with a known antifungal: FLC, C. albicans SC5314 (1 µg/mL), C. albicans 256 (64 µg/mL), C. auris 435 (8 µg/mL), and C. auris 537 (128 µg/mL), sterility controls correspond to RPMI medium and SS. The MIC was defined as the minimum concentration of peptide or extract that inhibited 50% of growth compared to the control. To determine the minimal fungicidal concentration (MFC), from the concentrations where no growth was observed, including the controls, a subculture was made on SDA and incubated for 24 h at 37 °C. The MFC was defined as the minimum concentration of peptide or extract that eliminated 100% of the growth compared to the control (n = 3).

In data set [8] the test system is primary culture of human foreskin fibroblasts. It counts as cell-based. The note with it: 2 h. How it is done: The toxicity of the ethanolic extract of B. pilosa, the palindromic peptide, and their combinations was evaluated in a primary culture of human foreskin fibroblasts by the MTT (tetrazolium salt, Sigma-Aldrich) assay, with modifications. Briefly, cells were seeded in 96-well plates at a density of 1 × 10^4 cells and 100 μL per well and allowed to adhere and proliferate for 24 h RPMI medium at 37 °C and 5% CO2.
Following this, the complete medium was replaced with incomplete medium (without 10% fetal bovine serum) for an additional 24 h in order to achieve synchronization. The cells were then incubated at 37 °C and 5% CO2 for 2 h with 100 μL of B. pilosa extract (31.25–2000 µg/mL), peptide at the concentrations evaluated (3.12–200 μg/mL), and additive or synergistic combinations (C 1: 25/250 µg/mL, C 2: 50/62.5 µg/mL, C 3: 100/125 µg/mL, and C 4: 25/31.25 µg/mL). The culture medium was removed, and 100 μL of incomplete medium with 10% MTT was added and incubated at 37 °C and 5% CO2 for 4 h. […] Following a 30 min incubation at 37 °C, the absorbance at 575 nm was measured, using the BioTek ELx800 absorbance reader (Agilent, Santa Clara, USA). […] In addition, the half-maximal inhibitory concentration (IC50) was calculated by plotting viability versus log (concentration).

Data set [9] relates to human red blood cells. Kind of data set: Hemolytic activity assay. It counts as cell-based. The conditions noted are these: positive control, Tween-20 (20% v/v) in PBS. How it is done: The hemolytic activity of the ethanolic extract of B. pilosa, palindromic peptide, and their combinations was analyzed on human red blood cells. Briefly, 5 mL of peripheral blood from a healthy individual was collected in an EDTA tube and centrifuged at 2500 rpm for 7 min. The erythrocyte-rich fraction was suspended in PBS and washed twice by centrifugation. Then, 100 µL of the B. pilosa extracts (15.62–2000 µg/mL), palindromic peptide (1.56–200 µg/mL), or additive or synergistic combinations of peptide and plant extract (combination 1: 25/250 µg/mL, combination 2: 50/62.5 µg/mL, combination 3: 100/125 µg/mL, and combination 4: 25/31.25 µg/mL) was mixed with 100 µL of erythrocytes (2% hematocrit) in round-bottom 96-well plates and incubated at 37 °C for 2 h. Subsequently, the reaction was stopped by centrifuging for 10 min at 2500 rpm. To measure hemoglobin levels, 100 µL of the supernatant containing the hemoglobin released from lysed erythrocytes was transferred to a 96-well plate with a flat bottom, and the absorbance was measured at 450 nm. PBS was used as a negative control, while Tween-20 (20% v/v) in PBS was used as a positive control (n = 3).

Where [10] appears, read: B. pilosa extract combined with FLC.
Setting [11] is: B. pilosa extract combined with FLC, checkerboard, 37 °C, 48 h.
Where [12] appears, read: B. pilosa extract, R-1-R and FLC combined.
The mark [13] stands for this setting: B. pilosa extract, R-1-R and FLC combined, checkerboard, 37 °C, 48 h.
[14] abbreviates: R-1-R combined with FLC, checkerboard, 37 °C, 48 h.

Where two headings read alike, the source gives them in different places. Ends that are not written are not given here.

As to `OC(Cn1cncn1)(Cn1cncn1)c1ccc(F)cc1F` [FLC, fluconazole], the “MIC alone/MIC in combination (factor of potentiation)” value is 8 in data set [1] (R-1-R combined with FLC); 8 in [2] (R-1-R combined with FLC); 1 in data set [3] (setting [10]); 4 in data set [3] (setting [12]); 4 in [3] (R-1-R combined with FLC); 4 in data set [4] (setting [10]). Further, the “MIC alone/MIC in combination (factor of potentiation)” value came out at 8 in data set [4] (setting [12]); 2 in data set [5] (setting [10]); 8 in data set [5] (setting [12]); 2 in [5] (R-1-R combined with FLC); 4 in [6] (setting [10]); 16 in [6] (setting [12]). Besides, the “MIC in combination (R-1-R, FLC)” value was 4 µg/mL in data set [1] (R-1-R combined with FLC), 8 µg/mL in data set [2] (R-1-R combined with FLC), 2 µg/mL in [3] (setting [14]) and 0.0625 µg/mL in data set [5] (setting [14]). Also, the “MIC of the agent alone (MICR-1-R, MICFLC)” value in data set [1] (checkerboard R-1-R + FLC) was 32 µg/mL; in [2] (checkerboard R-1-R + FLC) it was 64 µg/mL. Moreover, the “MIC in combination (E, FLC)” value is on record as 8 µg/mL in data set [3] (setting [11]), 32 µg/mL in data set [4] (setting [11]), 0.125 µg/mL in data set [5] (setting [11]) and 32 µg/mL in data set [6] (setting [11]). The “MIC in combination (E, R-1-R, FLC)” value in data set [3] (setting [13]) amounted to 1 µg/mL; in [4] (setting [13]), 4 µg/mL; in data set [5] (setting [13]), 0.06 µg/mL; in [6] (setting [13]), 8 µg/mL.
A word on the IC50: it is the concentration needed to halve the response being measured. As for RWQWRWQWR-NH2 [Peptide R-1-R], the MIC in [7] was determined as 67 µM. The IC50 in data set [8] was determined as 175.9 µg/mL.
For the molecule Tween-20, the “Hemolysis (in words)” value in data set [9] is “completely lysed the red blood cells”.
